Data: patent US9120749B2, “Quinoline derivatives and MELK inhibitors containing the same” (ONCOTHERAPY SCIENCE, INC., priority 2010, dated 2015)
Structures can show the parent of a compound that is named as a salt. Where two headings read alike, the source gives them in different places.

Tests used:
A549 cells = experiment: Cell-based assay: anti-proliferative activity, Cell Counting Kit-8, 72 hours (A549); details: MELK-expressing, Cell Counting Kit-8 at 72 hours
How it was run: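 A549 cells were seeded in 96-well plates and exposed to candidate inhibitors for 72 hours. Cell growth was then measured with Cell Counting Kit-8, and IC50 values were calculated from the resulting growth data.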

HT-1197 cells = experiment: Cell-based assay: anti-proliferative activity, Cell Counting Kit-8, 72 hours (HT-1197, negative control without MELK expression); details: HT1197 cells, no MELK expression (negative control), Cell Counting Kit-8 at 72 hours
How it was run: (§1)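 First, lysates underwent western blotting with anti-MELK antibody to establish expression. Next, cells went into 96-well plates. Then candidate inhibitors were added. Finally, viability was determined by CCK-8 at 72 h and IC50 computed.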

MELK = MELK (Homo sapiens, UniProt Q14680); experiment: Kinase assay: MELK activity, phosphorylation of FITC-labeled histone H3 peptide measured by IMAP fluorescence polarization; assay type: biochemical; details: 50 micro-M ATP, FITC-labeled histone H3 peptide substrate, IMAP fluorescence polarization, read-out: IC50 (μM) (kinase assay)
Sequence of MELK (Q14680 whole entry, looked up): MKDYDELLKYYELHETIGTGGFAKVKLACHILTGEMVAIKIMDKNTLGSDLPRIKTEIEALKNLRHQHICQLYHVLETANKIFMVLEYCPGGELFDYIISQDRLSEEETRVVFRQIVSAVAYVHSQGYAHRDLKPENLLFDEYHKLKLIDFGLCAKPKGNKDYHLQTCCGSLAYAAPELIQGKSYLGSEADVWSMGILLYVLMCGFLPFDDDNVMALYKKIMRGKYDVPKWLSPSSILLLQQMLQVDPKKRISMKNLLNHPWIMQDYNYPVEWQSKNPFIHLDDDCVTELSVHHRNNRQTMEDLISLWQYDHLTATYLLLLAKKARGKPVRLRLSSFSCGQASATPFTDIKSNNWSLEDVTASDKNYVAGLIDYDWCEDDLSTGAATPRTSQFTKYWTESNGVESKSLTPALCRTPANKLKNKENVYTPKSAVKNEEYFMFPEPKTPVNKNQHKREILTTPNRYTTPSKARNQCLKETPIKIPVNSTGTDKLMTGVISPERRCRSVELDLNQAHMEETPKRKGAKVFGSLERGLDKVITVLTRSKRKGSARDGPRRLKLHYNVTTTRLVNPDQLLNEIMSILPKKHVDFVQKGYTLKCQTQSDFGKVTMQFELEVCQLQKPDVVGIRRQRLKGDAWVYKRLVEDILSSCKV
How it was run: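 Kinase reactions ran with or without test compound (final DMSO 1%) on a fluorescein-tagged H3 peptide. Progressive binding solution was added to terminate them. After a half-hour room-temperature incubation, polarization was measured.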

BT-549 cells = experiment: Cell-based assay: anti-proliferative activity, Cell Counting Kit-8, 72 hours (BT-549); details: BT549 cells, MELK-expressing, Cell Counting Kit-8 at 72 hours
Description: To evaluate the expression status of MELK in several cell lines, western blot analysis was performed using crude cell lysate collected from those cells. Anti-MELK antibody (clone 31, BD Biosciences) was used to visualize the expression.
Active candidate inhibitors against MELK were evaluated for their target-specific cytotoxicity using T47D, A549, BT-549, and HT-1197 cells was used for negative control. 100 micro-L of cell suspension was seeded onto 96-well microtiter plate (ViewPlate-96FTC, PerkinElmer). The initial cell concentration of T47D, A549, BT-549, and HT-1197 were 3,000 cells/well, 2,000 cells/well and 2,500 cells/well, respectively. Cellular growth was determined using Cell Counting Kit-8 (DOJINDO) at 72 hours after the exposure of the candidate inhibitors. […] Accurate IC50 values were calculated as described previously.

T47D cells = experiment: Cell-based assay: anti-proliferative activity, Cell Counting Kit-8, 72 hours (T47D); details: MELK-expressing, Cell Counting Kit-8 at 72 hours
How it was run: as §1

Question: `COc1cc(-c2ccc3ncc(S(C)(=O)=O)c(N4CCC(C(C)N(C)C)CC4)c3c2)cc(Cl)c1O` (stereo not shown) [Example 245, 2-Chloro-4-[4-{4-[1-(dimethylamino)ethyl]piperidin-1-yl}-3-(methylsulfonyl)quinolin-6-yl]-6-methoxyphenol] was tested. Which IC50 (A549 cells; Homo sapiens, A549, 72 h) did it give?
Answer: The IC50 was 0.25 µM.

Question: And the IC50 (HT-1197 cells; Homo sapiens, HT1197, 72 h)?
Answer: Its IC50 is 2.3 µM.

Question: What about the IC50 (MELK) of the same compound?
Answer: The IC50 was 0.0016 µM.

Question: And the IC50 (BT-549 cells; Homo sapiens, BT-549, 72 h)?
Answer: Its IC50 is 0.74 µM.

Question: And the IC50 (T47D cells; Homo sapiens, T47D, 72 h)?
Answer: Its IC50 is 0.35 µM.

Question: What does the source list for `CN1CCC(CNc2c(C(=O)C3CC3)cnc3ccc(-c4cc(F)c(O)c(Cl)c4)cc23)CC1` [Example 270, {6-(3-Chloro-5-fluoro-4-hydroxyphenyl)-4-[(1-methylpiperidin-4-yl)methylamino]quinolin-3-yl}(cyclopropyl)methanone]?
Answer: IC50 (A549 cells; Homo sapiens, A549, 72 h): 0.69 µM; IC50 (HT-1197 cells; Homo sapiens, HT1197, 72 h): 2.9 µM; IC50 (MELK): 0.021 µM; IC50 (BT-549 cells; Homo sapiens, BT-549, 72 h): 1.1 µM; IC50 (T47D cells; Homo sapiens, T47D, 72 h): 0.51 µM

Question: What does the source list for `CC(C)C(=O)c1cnc2ccc(-c3cc(Cl)c(O)c(Cl)c3)cc2c1N[C@H]1CC[C@H](N)CC1` [Example 225(a), 1-{4-[trans-4-Aminocyclohexylamino]-6-(3,5-dichloro-4-hydroxyphenyl)quinolin-3-yl}-2-methylpropan-1-one]?
Answer: IC50 (A549 cells; Homo sapiens, A549, 72 h): 0.43 µM; IC50 (HT-1197 cells; Homo sapiens, HT1197, 72 h): 2 µM; IC50 (MELK): 0.0025 µM; IC50 (BT-549 cells; Homo sapiens, BT-549, 72 h): 0.18 µM; IC50 (T47D cells; Homo sapiens, T47D, 72 h): 0.073 µM

Question: `CN(C)Cc1ccc(Nc2c(C(=O)C3CC3)cnc3ccc(-c4cc(Cl)c(O)c(Cl)c4)cc23)cc1` [Example 345, Cyclopropyl[6-(3,5-dichloro-4-hydroxyphenyl)-4-{4-[(dimethylamino)methyl]phenylamino}quinolin-3-yl]methanone] was tested. Which IC50 (A549 cells; Homo sapiens, A549, 72 h) did it give?
Answer: Its IC50 is 0.051 µM.

Question: And the IC50 (HT-1197 cells; Homo sapiens, HT1197, 72 h)?
Answer: The IC50 was 0.67 µM.

Question: What about the IC50 (MELK) of the same compound?
Answer: Its IC50 is 0.0032 µM.

Question: And the IC50 (BT-549 cells; Homo sapiens, BT-549, 72 h)?
Answer: Its IC50 is 0.1 µM.

Question: And the IC50 (T47D cells; Homo sapiens, T47D, 72 h)?
Answer: The IC50 was 0.054 µM.

Question: For `N[C@H]1CC[C@H](Nc2c(C(=O)C3CC3)cnc3ccc(-c4ccncc4)cc23)CC1` [Example 212, {4-[trans-4-Aminocyclohexylamino]-6-(pyridin-4-yl)quinolin-3-yl}(cyclopropyl)methanone], which IC50 (A549 cells; Homo sapiens, A549, 72 h) is on record?
Answer: Its IC50 is 0.99 µM.

Question: What about the IC50 (HT-1197 cells; Homo sapiens, HT1197, 72 h) of the same compound?
Answer: Its IC50 is 7.2 µM.

Question: What about the IC50 (MELK) of the same compound?
Answer: The IC50 was 0.054 µM.

Question: And the IC50 (BT-549 cells; Homo sapiens, BT-549, 72 h)?
Answer: The IC50 was 2.5 µM.

Question: And the IC50 (T47D cells; Homo sapiens, T47D, 72 h)?
Answer: The IC50 was 2.7 µM.

Question: How did the IC50 (A549 cells; Homo sapiens, A549, 72 h) turn out when `O=C(c1cnc2ccc(-c3ccc(O)c(Cl)c3)cc2c1NCCN1CCNCC1)C1CC1` [Example 215, {6-(3-Chloro-4-hydroxyphenyl)-4-[2-(piperazin-1-yl)ethylamino]quinolin-3-yl}(cyclopropyl)methanone] was run?
Answer: Its IC50 is 1.2 µM.

Question: And the IC50 (HT-1197 cells; Homo sapiens, HT1197, 72 h)?
Answer: The IC50 was 3.9 µM.

Question: What about the IC50 (MELK) of the same compound?
Answer: The IC50 was 0.017 µM.

Question: What about the IC50 (BT-549 cells; Homo sapiens, BT-549, 72 h) of the same compound?
Answer: The IC50 was 1.5 µM.

Question: What about the IC50 (T47D cells; Homo sapiens, T47D, 72 h) of the same compound?
Answer: The IC50 was 0.92 µM.

Question: Which results are given for `COc1cc(-c2ccc3ncc(C(=O)C4CC4)c(N[C@H]4CC[C@@H](N)CC4)c3c2)ccc1O` [Example 165, {4-(cis-4-Aminocyclohexylamino)-6-(4-hydroxy-3-methoxyphenyl)quinolin-3-yl}(cyclopropyl)methanone]?
Answer: IC50 (A549 cells; Homo sapiens, A549, 72 h): 0.45 µM; IC50 (HT-1197 cells; Homo sapiens, HT1197, 72 h): 2.1 µM; IC50 (MELK): 0.0019 µM; IC50 (BT-549 cells; Homo sapiens, BT-549, 72 h): 0.93 µM; IC50 (T47D cells; Homo sapiens, T47D, 72 h): 0.57 µM

Question: For `N[C@H]1CC[C@H](Nc2c(C(=O)C3CC3)cnc3ccc(-c4cc(Cl)c(O)c(Cl)c4)cc23)CC1` [Example 157(b), {4-[trans-4-Aminocyclohexylamino]-6-(3,5-dichloro-4-hydroxyphenyl)quinolin-3-yl}(cyclopropyl)methanone dihydrochloride], which IC50 (A549 cells; dihydrochloride) is on record?
Answer: The IC50 was 0.3 µM.

Question: What about the IC50 (HT-1197 cells; dihydrochloride) of the same compound?
Answer: Its IC50 is 4.7 µM.

Question: And the IC50 (MELK; dihydrochloride)?
Answer: Its IC50 is 0.003 µM.

Question: What about the IC50 (BT-549 cells; dihydrochloride) of the same compound?
Answer: Its IC50 is 0.31 µM.

Question: And the IC50 (T47D cells; dihydrochloride)?
Answer: The IC50 was 0.096 µM.

Question: How did the IC50 (A549 cells; Homo sapiens, A549, 72 h) turn out when `COc1cc(-c2ccc3ncc(C(=O)C4CC4)c(N4CCC(CN5CCOCC5)CC4)c3c2)cc(Cl)c1O` [Example 334, {6-(3-Chloro-4-hydroxy-5-methoxyphenyl)-4-[4-(morpholinomethyl)piperidin-1-yl]quinolin-3-yl}(cyclopropyl)methanone] was run?
Answer: Its IC50 is 0.41 µM.

Question: What about the IC50 (HT-1197 cells; Homo sapiens, HT1197, 72 h) of the same compound?
Answer: The IC50 was 4.8 µM.

Question: What about the IC50 (MELK) of the same compound?
Answer: Its IC50 is 0.0081 µM.

Question: What about the IC50 (BT-549 cells; Homo sapiens, BT-549, 72 h) of the same compound?
Answer: Its IC50 is 0.77 µM.

Question: What about the IC50 (T47D cells; Homo sapiens, T47D, 72 h) of the same compound?
Answer: Its IC50 is 0.55 µM.

Question: What does the source list for `COc1cc(-c2ccc3ncc(C(=O)C4CC4)c(NCC4CCNCC4)c3c2)cc(Cl)c1O` [Example 243]?
Answer: IC50 (A549 cells; Homo sapiens, A549, 72 h): 0.62 µM; IC50 (HT-1197 cells; Homo sapiens, HT1197, 72 h): 7.3 µM; IC50 (MELK): 0.0044 µM; IC50 (BT-549 cells; Homo sapiens, BT-549, 72 h): 1.8 µM; IC50 (T47D cells; Homo sapiens, T47D, 72 h): 0.33 µM

Question: How did the IC50 (A549 cells; Homo sapiens, A549, 72 h) turn out when `CCN(CC)[C@H]1CC[C@H](Nc2c(C(=O)C3CC3)cnc3ccc(-c4cc(Cl)c(O)c(OC)c4)cc23)CC1` [Example 314, {6-(3-Chloro-4-hydroxy-5-methoxyphenyl)-4-[trans-4-(diethylamino)cyclohexylamino]quinolin-3-yl}(cyclopropyl)methanone] was run?
Answer: The IC50 was 0.22 µM.

Question: What about the IC50 (HT-1197 cells; Homo sapiens, HT1197, 72 h) of the same compound?
Answer: The IC50 was 4.3 µM.

Question: What about the IC50 (MELK) of the same compound?
Answer: The IC50 was 0.0031 µM.

Question: And the IC50 (BT-549 cells; Homo sapiens, BT-549, 72 h)?
Answer: The IC50 was 0.73 µM.

Question: And the IC50 (T47D cells; Homo sapiens, T47D, 72 h)?
Answer: Its IC50 is 0.16 µM.
